Measurements reported in US20180028516A1, “METHODS AND DEVICES FOR THE TREATMENT OF OCULAR DISEASES IN HUMAN SUBJECTS” (CLEARSIDE BIOMEDICAL, INC., priority 2012, published 2018).

Experiments:
[1] = Optical coherence tomography, retinal thickness (Example 13); type: in vivo, domestic weanling pigs; settings: all groups, prior to or following the injections
From the text: Following wide-field ocular tlindus photography on Days −1, 0, and 3, the central retina was imaged with spectral-domain optical coherence tomography (SD-OCT) (Bioptigen SDOCT EnVisu Ophthalmic Imaging System, Durham, N.C.) using 6 imaging protocols (including rectangular volume scans of 6, 8, and 12 mm, and doppler rectangular volume).

[2] = Ocular toxicokinetics of TA after suprachoroidal or intravitreal injection (Example 8); type: in vivo, pigmented rabbits; settings: SCS, 2 mg TA, compared with intravitreal
Protocol: (§1) in this study, the total amount of triamcinolone acetonide (TA) delivered into live pigmented rabbit eyes when injected, into the suprachoroidal space using a hollow microneedle or into the vitreous using a standard 30 gauge needle was compared.
(§2) On Day 0, pigmented rabbits were injected with either intravitreal or bilateral suprachoroidal injections of 2 mg/100 μl TA Triesence® (TA; Alcon Labs). intravitreal injections were performed using a 30 g needle (Becton-Dickinson) and suprachoroidal injections were performed using a 33 g 750 μm microneedle. The residual amount of TA present in the syringe/needle assembly after injection was determined by RP-HPLC. Clinical observations, slit lamp biomicroscopy with McDonald-Shadduck scoring, intraocular pressure assessment (IOP), electroretinography (ERG), and systemic exposure were assessed up to 120 days post-dose. Animals were sacrificed at 30 minutes, 7 days, 30 days, 60 days, and 120 days for macroscopic observations, ocular toxicokinetics, and ocular histopathology.

[3] = tested on: LPS-induced acute posterior uveitis; assay: Aqueous and vitreous humor inflammatory cell counts and protein concentration (Example 13); type: in vivo, domestic weanling pigs
Protocol: Pigs were euthanized on study day 3 after clinical scoring, OCT, ERG, and wide-field ocular fundus photography was completed. After euthanasia with an overdose of intravenous barbiturate, both eyes were removed, Aqueous humor (All) was aspirated and a 1 mL sample of vitreous humor (VH) was collected from each eye immediately after euthanasia. The globe was then fixed in Davidson's solution for 24 hours, followed by alcohol. Central, saggital sections of each globe, including the optic nerve, were stained with hematoxylin and eosin and examined by light microscopy. Two pathology-trained observers, masked to the study groups, graded degree of inflammatory infiltrate of the ocular anterior and posterior segments. The grading scale for the anterior and posterior ocular segment used was as follows: 0=no evidence of cellular infiltrate; 1=a few cells infiltrated (mild)−focal; 2=a few cells infiltrated (mild)−diffuse; 3=moderate number of cells infiltrated; and 4=high amount of cellular infiltrate.
After aspiration from the eyes, AH and VH were immediately placed on ice, transferred to the laboratory, then frozen at −80° C. until processing. Samples where thawed at room temperature, vortexed, and total cell counts were performed with a hemocytometer. Total protein concentration was measured using the […] (Pierce BCA Protein Assay Kit, Thermo Scientific Pierce, Rockford, Ill.).
Differences were considered significant at P<0.05.

[4] = Intraocular pressure and tolerability in porcine uveitis study (Example 13); type: in vivo, domestic weanling pigs
Protocol: Intraocular pressure (IOP) was measured at −6, −4, −1, 0, 1, 2, and 3 days using a TonoVet Tonometer (Care, Finland). In addition, IOP was measured 1, 3, and 6 hours after SCS or IVT injections on Day 0. The measurements were collected without use of topical anesthetic, per manufacturer recommendation. Conditioning of the pigs during acclimation permitted routine ocular examinations and IOP measurements to he done with minimal manual restraint. The tip of the tonometer probe was directed to contact the central cornea and 6 measurements were made consecutively. After the six measurements, the mean IOP was shown on the display providing the IOP that was recorded.

[5] = Ocular safety and histopathology after SCS TA (Example 8); type: in vivo, pigmented rabbits; settings: SCS TA by microneedle, up to 120 days
Protocol: as §1, §2

With `CC1(C)O[C@@H]2C[C@H]3[C@@H]4CCC5=CC(=O)C=C[C@]5(C)[C@@]4(F)[C@@H](O)C[C@]3(C)[C@]2(C(=O)CO)O1` [TA, triamcinolone acetonide] the “retinal thickness (SD-OCT), difference between groups” value [1] was “no significant difference”, the “ratio of TA Lens:Chroroid and Lens:Retina” value [2] was “much lower” and the “Mean AH cell counts compared with Groups 1, 5 or 6” value ([3]; Group 3: low dose TA SCS) was “not significantly different”. The “Mean VH cell count compared with Group 1 and Group 4” value ([3]; Group 3: low dose TA SCS) was “significantly higher”, the “Mean AH cell counts compared with Groups 1, 5 or 6” value ([3]; Group 4: high dose TA SCS) was “not significantly different” and the “mean VH cell counts compared with Group 1, the untreated control” value ([3]; Group 4: high dose TA SCS) was “not significantly different”. The “mean vitreous humor protein concentrations compared with Groups 3, 5 and 6” value ([3]; Group 4: high dose TA SCS) was “significantly lower”, the “Mean AH cell counts compared with Group 1” value ([3]; Group 5: low dose TA IVT) was “significantly higher” and the “Mean VH cell count compared with Group 1 and Group 4” value ([3]; Group 5: low dose TA IVT) was “significantly higher”. The “Mean AH cell counts compared with Group 1” value ([3]; Group 6: high dose TA IVT) was “significantly higher”, the “mean aqueous humor protein concentration, differences among the groups” value ([3]; all groups) was “no significant differences” and the “adverse effects, increased IOP, procedural or acute drug toxicity” value ([4]; TA into the SCS, porcine eyes) was “no adverse effects, increased IOP, or evidence of procedural or acute drug toxicity”. For the same compound, the “tolerability of TA delivered to the SCS using microneedles” value ([4]; up to three days after injection in porcine eyes) was “tolerated with an acceptable safety profile” and the “safety profile (inflammation, edema, apoptosis, necrosis)” value [5] was “no marked inflammation, edema, apoptosis, or necrosis at any time point”.
